Measured values: patent EP0230274A2, “Derivatives of 7-(azabicycloalkyl)-quinoloncarboxylic acid and -naphthyridoncarboxylic acid” (BAYER AG, priority 1986, dated 1987)
In brackets after ≈: the same amount, converted by molar mass. Counter-ions that a name gives are not always drawn. Like-named read-outs stand apart in the source and are kept apart here.

Tests used:
Assay in all cases: Agar dilution test (Isosensitest agar), MIC
Type in all cases: cell-based
Staph. aur. FK 422 = conditions: strain Staph. aur. FK 422; Agardilutionstest/Isosensitestagar; read-out: MHK
Excerpt: (§1) In der nachstehenden Tabelle sind einige MHK-Werte im Vergleich zu 1-Cyclopropyl-6-fluor-1,4-dihydro-4-oxo-7-(1-piperazinyl)-3-chinolincarbonsäure (Ciprofloxacin) angegeben: […]

Streptoc. faecal. 27101 = conditions: strain Streptoc. faecal. 27101; Agardilutionstest/Isosensitestagar; read-out: MHK
Excerpt: as §1

Staph. aur. 1756 = conditions: strain Staph. aur. 1756; Agardilutionstest/Isosensitestagar; read-out: MHK
Excerpt: as §1

Streptoc. faecal. 9790 = conditions: strain Streptoc. faecal. 9790; Agardilutionstest/Isosensitestagar; read-out: MHK
Excerpt: as §1

E.coli 455/7 = conditions: Escherichia coli; strain E.coli 455/7; Agardilutionstest/Isosensitestagar; read-out: MHK
Pseudomonas aerug. W. = conditions: strain Pseudomonas aerug. W.; Agardilutionstest/Isosensitestagar; read-out: MHK
Staph. aur. 133 = conditions: strain Staph. aur. 133; Agardilutionstest/Isosensitestagar; read-out: MHK
Excerpt: as §1

Providenicia 12052 = conditions: read-out: MHK
Excerpt: as §1

[1] = strain Providenicia 12052, Agardilutionstest/Isosensitestagar

Row | SMILES | MIC (Staph. aur. FK 422) [µg/mL] | MIC (Streptoc. faecal. 27101) [µg/mL] | MIC (Staph. aur. 1756) [µg/mL] | MIC (Streptoc. faecal. 9790) [µg/mL] | MIC (E.coli 455/7) [µg/mL] | MIC (Staph. aur. 133) [µg/mL] | MIC (Providenicia 12052; [1]) [µg/mL] | MIC (Pseudomonas aerug. W.) [µg/mL] | MIC (Providenicia 12052) [µg/mL]
1 | CN1C2CCC1CN(c1cc3c(cc1F)c(=O)c(C(=O)O)cn3C1CC1)C2 [Beispiel 12, 1-Cyclopropyl-6-fluor-1,4-dihydro-7-(8-methyl-3,8-diazabi-cyclo[3.2.1]oct-3-yl)-4-oxo-3-chinolincarbonsäure] |  |  |  |  | 4 (≈ 10.8 µM) |  |  | 0.5 (≈ 1.35 µM) | 16 (≈ 43.1 µM)
2 | O=C(O)c1cn(C2CC2)c2cc(N3CCNCC3)c(F)cc2c1=O [Ciprofloxacin, 1-Cyclopropyl-6-fluor-1,4-dihydro-4-oxo-7-(1-piperazinyl)-3-chinolincarbonsäure, reference compound] | 0.5 (≈ 1.51 µM) | 0.5 (≈ 1.51 µM) | 0.5 (≈ 1.51 µM) | 0.25 (≈ 0.754 µM) | 2 (≈ 6.04 µM) | 0.5 (≈ 1.51 µM) | 32 (≈ 96.6 µM) | 0.5 (≈ 1.51 µM) | 

Continued, in another order:

Row | MIC (Staph. aur. FK 422) [µg/mL] | MIC (Streptoc. faecal. 27101) [µg/mL] | MIC (Staph. aur. 1756) [µg/mL] | MIC (Streptoc. faecal. 9790) [µg/mL] | MIC (E.coli 455/7) [µg/mL] | MIC (Staph. aur. 133) [µg/mL] | MIC (Providenicia 12052; [1]) [µg/mL] | SMILES | MIC (Pseudomonas aerug. W.) [µg/mL] | MIC (Providenicia 12052) [µg/mL]
3 | 0.25 | 0.25 | 0.25 | 0.25 | 2 |  |  | O=C(O)c1cn(C2CC2)c2cc(N3CCN4CCC3C4)c(F)cc2c1=O (stereo not drawn) [Beispiel 1, 1-Cyclopropyl-7-(1,4-diazabicyclo[3.2.1]oct-4-yl)-6-fluor-1,4-dihydro-4-oxo-3-chinolincarbonsäureHydrochlorid] | 0.5 | 
4 | 0.06 | 0.06 | 0.06 | 0.06 | 0.5 | 0.06 | 8 | O=C(O)c1cn(C2CC2)c2c(Cl)c(N3CCN4CCC3C4)c(F)cc2c1=O (stereo not drawn) [Beispiel 3, 8-Chlor-1-cyclopropyl-7-(1,4-diazabicyclo[3.2.1]ocl-4-yl)-6-fluor-1,4-dihydro-4-oxo-3-chinolincarbonäure-Hydrochlorid-Hydrat] |  | 
5 |  |  | 0.06 (≈ 0.16 µM) | 0.25 (≈ 0.666 µM) | 0.5 (≈ 1.33 µM) | 0.06 (≈ 0.16 µM) | 8 (≈ 21.3 µM) | O=C(O)c1cn(C2CC2)c2c(F)c(N3CCN4CCC3C4)c(F)cc2c1=O (stereo not drawn) [Beispiel 4, 1-Cyclopropyl-7-(1,4-diazabicyclo[3.2.1]oct-4-yl)-6,8-difluor-1,4-dihydro-4-oxo-3-chinolincarbonsäure] | 0.5 (≈ 1.33 µM) | 
